Measurements as given in article PMC11882969 (Nature Communications, 2025).
Where “and” joins values, the source holds several entries; their conditions need not be identical. Equal values may be shown once.

Tests used:
CB1 (rCB1) = CB1 (rCB1) (Rattus norvegicus, UniProt P20272); assay: Radioligand competition binding, [3H]-CP-55,940, rat brain membranes
hCB1 = hCB1 (Homo sapiens, UniProt P21554); assay: bioSensAll ebBRET signaling profiling, hCB1; type: cell-based; design: host or cells: HEK293SL cells, transient PEI transfection; details: for Gi1 hCB1 response: Gi1 biosensor; for Gi1 hCB1 / GoB hCB1: single replicate values, FigS6a
hCB1, sequence (P21554 whole entry): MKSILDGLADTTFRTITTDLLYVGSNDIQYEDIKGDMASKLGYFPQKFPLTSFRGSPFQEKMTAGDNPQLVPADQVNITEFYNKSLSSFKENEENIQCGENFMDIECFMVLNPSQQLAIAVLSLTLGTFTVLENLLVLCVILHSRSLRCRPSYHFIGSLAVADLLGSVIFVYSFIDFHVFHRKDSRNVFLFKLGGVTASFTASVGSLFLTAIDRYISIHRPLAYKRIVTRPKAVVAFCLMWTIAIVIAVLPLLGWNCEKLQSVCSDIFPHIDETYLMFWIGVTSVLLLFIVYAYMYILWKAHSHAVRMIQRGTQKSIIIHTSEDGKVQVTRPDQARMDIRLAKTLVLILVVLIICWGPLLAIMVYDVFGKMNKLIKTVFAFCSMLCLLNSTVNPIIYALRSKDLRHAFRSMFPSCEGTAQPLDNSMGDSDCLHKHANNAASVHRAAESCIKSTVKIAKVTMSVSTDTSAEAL

CB1 (rCB1), sequence (P20272 whole entry): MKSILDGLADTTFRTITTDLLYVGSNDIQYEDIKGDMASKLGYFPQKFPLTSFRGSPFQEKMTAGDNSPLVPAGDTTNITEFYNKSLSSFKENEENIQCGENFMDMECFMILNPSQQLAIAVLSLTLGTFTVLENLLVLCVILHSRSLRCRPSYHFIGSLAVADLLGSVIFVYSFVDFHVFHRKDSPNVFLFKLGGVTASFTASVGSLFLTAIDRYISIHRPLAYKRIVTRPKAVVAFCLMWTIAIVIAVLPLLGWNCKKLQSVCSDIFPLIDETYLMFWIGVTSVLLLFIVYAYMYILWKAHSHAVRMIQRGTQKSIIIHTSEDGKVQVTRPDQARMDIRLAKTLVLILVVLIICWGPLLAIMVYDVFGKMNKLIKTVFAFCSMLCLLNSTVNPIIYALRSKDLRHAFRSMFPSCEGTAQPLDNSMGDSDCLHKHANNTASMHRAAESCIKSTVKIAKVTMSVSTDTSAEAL

Structure (SMILES): Cc1cc(C(=O)N(C)C(c2ccco2)c2ccco2)nn1-c1cccc(C(F)(F)F)c1 [‘4388]
- pKi [95% CI] (CB1 (rCB1); rCB1): 5.9 [5.7 – 6.0]
- Ki (CB1 (rCB1); read-out: Ki [95% CI], rCB1, [3H]-CP-55,940): 1360 nM
- Gi1 hCB1 response (hCB1; Log [Compound] (M) -4.22186): -4.018
- Gi1 hCB1 response (hCB1; Log [Compound] (M) -4.63927): -19.2595
- Gi1 hCB1 response (hCB1; Log [Compound] (M) -5.05788): -23.1763
- Gi1 hCB1 response (hCB1; Log [Compound] (M) -5.47381): 10.5525
- Gi1 hCB1 response (hCB1; Log [Compound] (M) -5.89285): -11.6498
- Gi1 hCB1 response (hCB1; Log [Compound] (M) -6.31878): -15.6337
- Gi1 hCB1 response (hCB1; Log [Compound] (M) -6.72585): 2.07
- Gi1 hCB1 response (hCB1; Log [Compound] (M) -7.14267): 5.942
- Gi1 hCB1 response (hCB1; Log [Compound] (M) -7.55284): 4.107
- Gi1 hCB1 response (hCB1; Log [Compound] (M) -8): 5.7853
- Gi1 hCB1 response (hCB1; Log [Compound] (M) -8.22186): 57.4864
- Gi1 hCB1 response (hCB1; Log [Compound] (M) -8.39794): -7.509
- Gi1 hCB1 response (hCB1; Log [Compound] (M) -8.68787): 16.0808
- Gi1 hCB1 response (hCB1; Log [Compound] (M) -9.15521): -3.346
- Gi1 hCB1 response (hCB1; Log [Compound] (M) -9.61989): -13.3061
- Gi1 hCB1 response (hCB1; Log [Compound] (M) -10.0969): -9.456
- Gi1 hCB1 response (hCB1; Log [Compound] (M) -10.5529): 6.658
- Gi1 hCB1 response (hCB1; Log [Compound] (M) -11.0177): 9.836
- Gi1 hCB1 response (hCB1; Log [Compound] (M) -11.4949): 13.8426
- Gi1 hCB1 response (hCB1; Log [Compound] (M) -11.9208): 7.912
- Gi1 hCB1 response (hCB1; Log [Compound] (M) -12.3979): 17.8713
- Gi1 hCB1 response (hCB1; Log [Compound] (M) -12.8861): 0.7271
- Gi1 hCB1 response (hCB1; Log [Compound] (M) -13, individual replicate values): -6.01 and 6.502
- Gi1 hCB1 (hCB1; Log [Compound] (M) -4.22186): -1.453
- GoB hCB1 (hCB1; Log [Compound] (M) -4.22186): -21.3927
- Gi1 hCB1 (hCB1; Log [Compound] (M) -4.63927): -2.47
- GoB hCB1 (hCB1; Log [Compound] (M) -4.63927): -23.227
- Gi1 hCB1 (hCB1; Log [Compound] (M) -5.05788): -11.3501
- GoB hCB1 (hCB1; Log [Compound] (M) -5.05788): -26.2122
- Gi1 hCB1 (hCB1; Log [Compound] (M) -5.47381): -11.1959
- GoB hCB1 (hCB1; Log [Compound] (M) -5.47381): -26.6258
- Gi1 hCB1 (hCB1; Log [Compound] (M) -5.89285): -9.5
- GoB hCB1 (hCB1; Log [Compound] (M) -5.89285): -20.8711
- Gi1 hCB1 (hCB1; Log [Compound] (M) -6.31878): -8.93
- GoB hCB1 (hCB1; Log [Compound] (M) -6.31878): -17.76
- Gi1 hCB1 (hCB1; Log [Compound] (M) -6.72585): -4.983
- GoB hCB1 (hCB1; Log [Compound] (M) -6.72585): -9.883
- Gi1 hCB1 (hCB1; Log [Compound] (M) -7.14267): 0.7674
- GoB hCB1 (hCB1; Log [Compound] (M) -7.14267): -5.046
- Gi1 hCB1 (hCB1; Log [Compound] (M) -7.55284): 2.355
- GoB hCB1 (hCB1; Log [Compound] (M) -7.55284): 0.4032
- Gi1 hCB1 (hCB1; Log [Compound] (M) -8): 1.985
- GoB hCB1 (hCB1; Log [Compound] (M) -8): -1.107
- Gi1 hCB1 (hCB1; Log [Compound] (M) -8.22186): 1.292
- GoB hCB1 (hCB1; Log [Compound] (M) -8.22186): -1.989
- Gi1 hCB1 (hCB1; Log [Compound] (M) -8.39794): 1.677
- GoB hCB1 (hCB1; Log [Compound] (M) -8.39794): 0.9427
- Gi1 hCB1 (hCB1; Log [Compound] (M) -8.68787): 1.23
- GoB hCB1 (hCB1; Log [Compound] (M) -8.68787): -0.8377
- Gi1 hCB1 (hCB1; Log [Compound] (M) -9.15521): 0.9215
- GoB hCB1 (hCB1; Log [Compound] (M) -9.15521): -0.8737
- Gi1 hCB1 (hCB1; Log [Compound] (M) -9.61989): 0.08902
- GoB hCB1 (hCB1; Log [Compound] (M) -9.61989): -0.7118
- Gi1 hCB1 (hCB1; Log [Compound] (M) -10.0969): 1.816
- GoB hCB1 (hCB1; Log [Compound] (M) -10.0969): -0.7298
- Gi1 hCB1 (hCB1; Log [Compound] (M) -10.5529): 1.122
- GoB hCB1 (hCB1; Log [Compound] (M) -10.5529): -2.258
- Gi1 hCB1 (hCB1; Log [Compound] (M) -11.0177): 1.6
- GoB hCB1 (hCB1; Log [Compound] (M) -11.0177): 0.6549
- Gi1 hCB1 (hCB1; Log [Compound] (M) -11.4949): 2.232
- GoB hCB1 (hCB1; Log [Compound] (M) -11.4949): -1.305
- Gi1 hCB1 (hCB1; Log [Compound] (M) -11.9208): 2.186
- GoB hCB1 (hCB1; Log [Compound] (M) -11.9208): -1.089
- Gi1 hCB1 (hCB1; Log [Compound] (M) -12.3979): 1.137
- GoB hCB1 (hCB1; Log [Compound] (M) -12.3979): -1.305
- Gi1 hCB1 (hCB1; Log [Compound] (M) -12.8861): 1.415
- GoB hCB1 (hCB1; Log [Compound] (M) -12.8861): -0.9816
- Gi1 hCB1 (hCB1; Log [Compound] (M) -13): 2.1086 and 2.987
- GoB hCB1 (hCB1; Log [Compound] (M) -13): 0.8707 and 0.2953
